Measurements: US20100152267A1, “NOVEL RIFAMYCIN 3,4-(3-SUBSTITUTED AMINOMETHYL) FUSED PYRROLO DERIVATIVES” (priority 2008, published 2010)
Converted amounts (≈) assume the structure as drawn.

Experiments:
Type in all cases: cell-based
[1] = tested on: Enterococcus faecium OC 3312 vancomycin resistant; assay: MIC by microdilution broth method (NCCLS), A Strain; conditions: read-out: MIC A Strain
Description: (§1) Minimum inhibitory concentration (MIC) is an indicator of in vitro antibacterial activity. […] The in vitro antimicrobial activity of representative compounds of the present invention was determined by the microdilution broth method following the test method from the National Committee for Clinical Laboratory Standards (NCCLS). This method is described in the NCCLS Document M7-A4, Vol. 17, No. 2, “Methods for Dilution Antimicrobial Susceptibility Test for Bacteria that Grow Aerobically—Fourth Edition”, which is incorporated herein by reference.
(§2) In this method two-fold serial dilutions of test compound in cation adjusted Mueller-Hinton broth were added to wells in microdilution trays. The test organisms were prepared by adjusting the turbidity of actively growing broth cultures so that the final concentration of test organism after it is added to the wells was approximately 5×10^4 CFU/well. Following inoculation of the microdilution trays, the trays were incubated at 35° C. for 16-20 hours and then read. The amount of growth in the wells containing the test compound was compared with the amount of growth in the growth-control wells (no test compound) used in each tray.
(§3) Representative compounds of the present invention were tested against a variety of pathogenic bacteria with results as listed in Table 2, below.

[2] = tested on: Methicillin-resistant Staphylococcus aureus OC 3726 COL; assay: MIC by microdilution broth method (NCCLS), B Strain; conditions: read-out: MIC B Strain
Description: as §1, §2, §3

[3] = tested on: Staphylococcus aureus OC4172; assay: MIC by microdilution broth method (NCCLS), C Strain; conditions: cation adjusted Mueller-Hinton broth, 35° C., 16-20 hours
Description: as §1, §2, §3

[4] = tested on: Methicillin-resistant Staphylococcus aureus OC 2878; assay: MIC by microdilution broth method (NCCLS), D Strain; conditions: read-out: MIC D Strain
Description: as §1, §2, §3

Row | SMILES | MIC [1] [µg/mL] | MIC [2] [µg/mL] | MIC [3] [µg/mL] | MIC [4] [µg/mL]
1 | CO[C@H]1/C=C/O[C@@]2(C)Oc3c(C)c(O)c4c(O)c(c5c(CN(C)Cc6ccc(N7CCN(C)CC7)cc6)c[nH]c5c4c3C2=O)NC(=O)/C(C)=C\C=C\[C@H](C)[C@H](O)[C@@H](C)[C@@H](O)[C@@H](C)[C@H](OC(C)=O)[C@@H]1C [Compound 3] | 2 (≈ 2.1 µM) | 1 (≈ 1.05 µM) | 1 (≈ 1.05 µM) | 1 (≈ 1.05 µM)
2 | CO[C@H]1/C=C/O[C@@]2(C)Oc3c(C)c(O)c4c(O)c(c5c(CN6CCCCC6)c[nH]c5c4c3C2=O)NC(=O)/C(C)=C\C=C\[C@H](C)[C@H](O)[C@@H](C)[C@@H](O)[C@@H](C)[C@H](OC(C)=O)[C@@H]1C [Compound 2] | 8 (≈ 9.78 µM) | 4 (≈ 4.89 µM) | 4 (≈ 4.89 µM) | 4 (≈ 4.89 µM)
3 | CO[C@H]1/C=C/O[C@@]2(C)Oc3c(C)c(O)c4c(O)c(c5c(CNCc6ccc(N7CCN(C)CC7)cc6)c[nH]c5c4c3C2=O)NC(=O)/C(C)=C\C=C\[C@H](C)[C@H](O)[C@@H](C)[C@@H](O)[C@@H](C)[C@H](OC(C)=O)[C@@H]1C [Compound 4] | 1 (≈ 1.07 µM) | 0.5 (≈ 0.533 µM) | 1 (≈ 1.07 µM) | 0.5 (≈ 0.533 µM)
4 | CO[C@H]1/C=C/O[C@@]2(C)Oc3c(C)c(O)c4c(O)c(c5c(CN(Cc6ccc(N7CCN(C)CC7)cc6)Cc6ccc(N7CCN(C)CC7)cc6)c[nH]c5c4c3C2=O)NC(=O)/C(C)=C\C=C\[C@H](C)[C@H](O)[C@@H](C)[C@@H](O)[C@@H](C)[C@H](OC(C)=O)[C@@H]1C [Compound 5] | 1 (≈ 0.888 µM) | 0.25 (≈ 0.222 µM) | 0.25 (≈ 0.222 µM) | 0.25 (≈ 0.222 µM)
5 | CO[C@H]1/C=C/O[C@@]2(C)Oc3c(C)c(O)c4c(O)c(c5c(CN)c[nH]c5c4c3C2=O)NC(=O)/C(C)=C\C=C\[C@H](C)[C@H](O)[C@@H](C)[C@@H](O)[C@@H](C)[C@H](OC(C)=O)[C@@H]1C [Compound 1] | < 1 | 0.25 (≈ 0.333 µM) | 0.12 (≈ 0.16 µM) | 0.25 (≈ 0.333 µM)
